Test results as given in US9302999B2, “Substituted triazoles as herbicides” (E. I. DU PONT DE NEMOURS AND COMPANY, priority 2012, dated 2016).

Experiments:
Assay type in all cases: in vivo
[1] = system: windgrass (Apera spica-venti); assay: Test D pre-/postemergence: windgrass
Text: (§1) Seeds of plant species selected from bluegrass (annual bluegrass, Poa annua), blackgrass (Alopecurus myosuroides), canarygrass (Phalaris minor), chickweed (common chickweed, Stellaria media), galium (catchweed bedstraw, Galium aparine), bromegrass, downy (downy bromegrass, Bromus tectorum), field poppy (Papaver rhoeas), field violet (Viola arvensis), foxtail, green (green foxtail, Setaria viridis), deadnettle (henbit deadnettle, Lamium amplexicaule), ryegrass, Italian (Italian ryegrass, Lolium multiflorum), kochia (Kochia scoparia), lambsquarters (Chenopodium album), oilseed rape (Brassica napus), pigweed (Amaranthus retroflexus), Russian thistle (Salsola iberica), chamomile (scentless chamomile, Matricaria inodora), speedwell (bird's-eye speedwell, Veronica persica), barley, spring (spring barley, Hordeum vulgare), wheat, spring (spring wheat, Triticum aestivum), buckwheat, wild (wild buckwheat, Polygonum convolvulus), mustard, wild (wild mustard, Sinapis arvensis), oat, wild (wild oat, Avena fatua), radish, wild (wild radish, Raphanus raphanistrum), windgrass (Apera spica-venti), barley, winter (winter barley, Hordeum vulgare), and wheat, winter (winter wheat, Triticum aestivum) were planted into a silt loam soil and treated preemergence with test chemicals formulated in a non-phytotoxic solvent mixture which included a surfactant. At the same time, these same crop and weed species were planted in pots containing the planting medium comprising spaghnum peat moss, vermiculite, wetting agent and starter nutrients and treated with postemergence applications of the test chemicals formulated in the same manner. Plants ranged in height from 2 to 18 cm (1- to 4-leaf stage).
(§2) Treated plants and controls were maintained in a controlled growth environment for 14 to 21 days after which time all species were compared to controls and visually evaluated. Plant response ratings, summarized in Table D, are based on a scale of 0 to 100 where 0 is no effect and 100 is complete control. A dash (-) response means no test result.

[2] = system: oilseed rape (Brassica napus); assay: Test D pre-/postemergence: oilseed rape
Text: as §1, §2

[3] = system: foxtail, green (green foxtail, Setaria viridis); assay: Test D pre-/postemergence: foxtail, green
Text: as §1, §2

[4] = Postemergence, 31 g ai/ha, scale 0 to 100 (0 no effect, 100 complete control)
[5] = Postemergence, 62 g ai/ha, scale 0 to 100 (0 no effect, 100 complete control)
[6] = Postemergence, 125 g ai/ha, scale 0 to 100, 0 no effect, 100 complete control
[7] = Postemergence, 250 g ai/ha, scale 0 to 100 (0 no effect, 100 complete control)
[8] = Preemergence, 31 g ai/ha, scale 0 to 100, 0 no effect, 100 complete control
[9] = Preemergence, 62 g ai/ha, scale 0 to 100
[10] = Preemergence, 125 g ai/ha, scale 0 to 100
[11] = Preemergence, 250 g ai/ha, scale 0 to 100
[12] = Postemergence, 16 g ai/ha, scale 0 to 100
[13] = Preemergence, 16 g ai/ha, scale 0 to 100, 0 no effect, 100 complete control
[14] = Postemergence, 31 g ai/ha, scale 0 to 100

Row | SMILES | Plant response rating: Windgrass [1, 4] | Plant response rating: Windgrass [1, 5] | Plant response rating: Windgrass [1, 6] | Plant response rating: Windgrass [1, 7] | Plant response rating, Windgrass [1, 8] | Plant response rating, Windgrass [1, 9] | Plant response rating, Windgrass [1, 10] | Plant response rating: Oilseed Rape [2, 4] | Plant response rating: Oilseed Rape [2, 5] | Plant response rating: Oilseed Rape [2, 6] | Plant response rating: Oilseed Rape [2, 7] | Plant response rating, Oilseed Rape [2, 8] | Plant response rating, Oilseed Rape [2, 9] | Plant response rating: Foxtail, Green [3, 4] | Plant response rating: Foxtail, Green [3, 5] | Plant response rating: Foxtail, Green [3, 6] | Plant response rating: Foxtail, Green [3, 7] | Plant response rating, Windgrass [1, 12] | Plant response rating, Oilseed Rape [2, 12] | Plant response rating, Foxtail, Green [3, 12] | other results
1 | FC(F)(F)COc1nn(-c2ccc(C(F)(F)F)cc2)nc1Cc1ccnc(C(F)(F)F)c1 [Compound 14, 4-[[5-(2,2,2-trifluoroethoxy)-2-[4-(trifluoromethyl)phenyl]-2H-1,2,3-triazol-4-yl]methyl]-2-(trifluoromethyl)pyridine] | 30 | 40 | 75 | 100 | 10 | 20 | 40 | 30 | 70 | 90 | 100 | 0 | 0 | 10 | 25 | 30 | 95 |  |  |  | Plant response rating, Windgrass [1, 11]: 85; Plant response rating, Oilseed Rape [2, 10]: 30; Plant response rating, Oilseed Rape [2, 11]: 40; Plant response rating, Foxtail, Green [3, 8]: 0; Plant response rating, Foxtail, Green [3, 9]: 10; Plant response rating, Foxtail, Green [3, 10]: 75; Plant response rating, Foxtail, Green [3, 11]: 100
2 | COc1nn(-c2ccc(C(F)(F)F)cc2)nc1Cc1ccnc(C(F)(F)F)c1 [Compound 15, 4-[[5-methoxy-2-[4-(trifluoromethyl)phenyl]-2H-1,2,3-triazol-4-yl]methyl]-2-(trifluoromethyl)pyridine] | 10 | 25 | 75 | 100 | 30 | 40 | 100 | 100 | 70 | 100 | 100 | 0 | 10 | 30 | 80 | 75 | 100 | 5 | 70 | 15 | Plant response rating, Windgrass [1, 11]: 100; Plant response rating, Oilseed Rape [2, 10]: 20; Plant response rating, Oilseed Rape [2, 11]: 75; Plant response rating, Foxtail, Green [3, 8]: 70; Plant response rating, Foxtail, Green [3, 9]: 100; Plant response rating, Foxtail, Green [3, 10]: 100; Plant response rating, Foxtail, Green [3, 11]: 100
3 | Cc1nn(-c2ccc(C(F)(F)F)cn2)nc1Oc1ccnc(C(F)(F)F)c1 [Compound 23] | 5 | 10 | 20 | 30 |  |  |  | 50 | 75 | 85 | 95 |  |  | 15 | 20 | 25 | 25 | 0 | 50 | 15 | 
4 | Cc1nn(-c2ccc(C(F)(F)F)cn2)nc1Cc1cccc(C(F)(F)F)c1 [Compound 106] | 10 | 25 | 35 | 50 | 5 | 5 | 25 | 10 | 10 | 80 | 95 | 10 | 10 | 10 | 20 | 30 | 40 | 5 | 10 | 0 | Plant response rating, Windgrass [1, 11]: 80; Plant response rating, Oilseed Rape [2, 10]: 10; Plant response rating, Oilseed Rape [2, 11]: 20; Plant response rating, Foxtail, Green [3, 8]: 0; Plant response rating, Foxtail, Green [3, 9]: 0; Plant response rating, Foxtail, Green [3, 10]: 0; Plant response rating, Foxtail, Green [3, 11]: 100
5 | Cc1nn(-c2ccc(C(F)(F)F)cc2)nc1Oc1ccnc(C(F)(F)F)c1 [Compound 120] | 15 | 95 | 100 | 100 | 80 | 100 | 100 | 50 | 80 | 90 | 98 | 10 | 10 | 15 | 80 | 95 | 100 | 5 | 20 | 5 | Plant response rating, Windgrass [1, 13]: 0; Plant response rating, Windgrass [1, 11]: 100; Plant response rating, Oilseed Rape [2, 13]: 0; Plant response rating, Oilseed Rape [2, 10]: 30; Plant response rating, Oilseed Rape [2, 11]: 70; Plant response rating, Foxtail, Green [3, 13]: 70; Plant response rating, Foxtail, Green [3, 8]: 100; Plant response rating, Foxtail, Green [3, 9]: 100; Plant response rating, Foxtail, Green [3, 10]: 100; Plant response rating, Foxtail, Green [3, 11]: 100
6 | COc1nn(-c2ccc(C(F)(F)F)cc2)nc1Cc1ccnc(C(F)F)c1 [Compound 138] |  | 50 | 60 | 90 |  |  |  | 95 | 100 | 100 | 100 |  |  | 40 | 75 | 80 | 100 | 15 | 85 | 20 | Plant response rating, Windgrass [1, 14]: 30
7 | Cc1nn(-c2ccc(F)c(C(F)(F)F)c2)nc1Cc1ccnc(C(F)(F)F)c1 [Compound 156] |  | 70 | 80 |  | 10 | 85 | 100 | 100 | 100 | 100 |  | 0 | 85 | 25 | 25 | 65 |  | 25 | 100 | 10 | Plant response rating, Windgrass [1, 14]: 50; Plant response rating, Windgrass [1, 13]: 0; Plant response rating, Oilseed Rape [2, 13]: 0; Plant response rating, Oilseed Rape [2, 10]: 100; Plant response rating, Foxtail, Green [3, 13]: 5; Plant response rating, Foxtail, Green [3, 8]: 10; Plant response rating, Foxtail, Green [3, 9]: 30; Plant response rating, Foxtail, Green [3, 10]: 100
